Here are results for 14 compounds from patent publication US10745401B2, “Condensed lactam derivative” (Sumitomo Dainippon Pharma Co., Ltd., priority 2018, dated 2020).

For series [1], the target named is T1, human 5-HT2A receptor (Homo sapiens (Human), UniProt P28223). In words: Test 1: binding activity for human 5-HT2A receptor ([3H]Ketanserin, CHO cell membrane fraction). The protocol: Test 1: Evaluation of Binding Activity for Human 5-HT1A Receptor, Human 5-HT2A Receptor, and Human D2 Receptor
T1 sequence (P28223 whole entry): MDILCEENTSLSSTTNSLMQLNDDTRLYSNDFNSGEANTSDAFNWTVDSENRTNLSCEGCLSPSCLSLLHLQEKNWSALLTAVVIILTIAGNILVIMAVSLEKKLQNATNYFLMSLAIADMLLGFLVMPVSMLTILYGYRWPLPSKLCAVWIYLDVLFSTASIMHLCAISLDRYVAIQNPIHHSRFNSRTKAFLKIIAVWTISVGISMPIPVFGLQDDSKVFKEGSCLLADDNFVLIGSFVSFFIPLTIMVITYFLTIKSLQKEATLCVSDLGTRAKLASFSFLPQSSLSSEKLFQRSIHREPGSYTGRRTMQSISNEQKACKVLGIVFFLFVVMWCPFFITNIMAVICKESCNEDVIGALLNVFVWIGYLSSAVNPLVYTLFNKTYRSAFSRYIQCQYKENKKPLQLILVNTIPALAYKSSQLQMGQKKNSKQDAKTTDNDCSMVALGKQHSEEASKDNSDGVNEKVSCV
Binding affinity of the present compound for human 5-HT1A receptor, human 5-HT2A receptor, and human D2 receptor was measured by the following procedures.
Each mixture was incubated at room temperature for 60 minutes. Then, the mixture was added quickly on a glassfiber filter plate (Multiscreen FB, Millipore, Inc.) coated with 0.3% aqueous polyethylenimine, and vacuum-filtered. Radioactivity remaining on the filter was measured with a liquid scintillation counter (PerkinElmer, Inc.). Binding inhibition rate was calculated from the following formula.
Ki of each compound was calculated from the following formula. Binding inhibition constant (Ki)=IC50/(1+S/Kd) wherein S is concentration of ligand; Kd is a binding dissociation constant of ligand to membrane, which is calculated from a saturated binding experiment conducted with the same cell membrane. A small Ki value means strong binding ability to a receptor.

The target in series [2] is T1, human 5-HT2A receptor. Put plainly: Test 3: antagonist activity for human 5-HT2A receptor (aequorin luminescence, CHO-K1 cells). As to conditions: CHO-K1 cells, 1 nmol/L 5-HT. The format is cell-based. On the procedure: Test 3: Evaluation of Antagonist Activity for Human 5-HT2A Receptor
Aequorin, Gα16 protein, and each receptor were transiently expressed in CHO-K1 cells (Chinese hamster ovary). […] Each compound dissolved in DMSO was added thereto, and changes in luminescence were measured by FDSS/μCELL functional drug screening system (Hamamatsu Photonics K.K.). Antagonist activity was calculated from the following formula. Antagonist activity (%)=100×{(Luminescence of well in the presence of 1 nmol/L 5-HT−Luminescence of well containing solvent)−(Luminescence of well in the presence of test compound and 1 nmol/L 5-HT−Luminescence of well containing solvent)}/(Luminescence of well in the presence of 1 nmol/L 5-HT−Luminescence of well containing solvent)

Series [3] in a line: Test 4: metabolic stability test in human hepatic microsome. The format is in vitro ADME. To be noted: 0.1 mg/mL microsome, 0.1 μmol/L compound, 37° C., 30 minutes. An outline of the steps:
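Compound at 0.1 μmol/L incubated 30 min at 37° C with human liver microsomes (0.1 mg/mL) and NADPH (3.2 mmol/L) in 25 mmol/L phosphate buffer, pH 7.4. Residual compound measured by LC-MS; stability (mL/min/mg protein) = −LN(residual ratio)/30/0.1.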

The target of the next series is hERG channel (Homo sapiens (Human), UniProt Q12809). Put plainly: Test 6-1: inhibitory activity for hERG channel (auto patch clamp, Qpatch). As to conditions: whole cell auto patch clamp, hERG-CHO cells; read-out: hERG inhibition IC50. The format is cell-based. An outline of the steps: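 Whole-cell patch clamp on an automated system using CHO cells stably expressing human hERG (IKr); 15 s pulse interval. Four increasing compound concentrations applied cumulatively; mean peak tail current from last 3 stimulations per concentration used. IC50 from inhibition versus pre-compound current, fitted by Hill equation.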
Chain of hERG channel (Q12809 whole entry): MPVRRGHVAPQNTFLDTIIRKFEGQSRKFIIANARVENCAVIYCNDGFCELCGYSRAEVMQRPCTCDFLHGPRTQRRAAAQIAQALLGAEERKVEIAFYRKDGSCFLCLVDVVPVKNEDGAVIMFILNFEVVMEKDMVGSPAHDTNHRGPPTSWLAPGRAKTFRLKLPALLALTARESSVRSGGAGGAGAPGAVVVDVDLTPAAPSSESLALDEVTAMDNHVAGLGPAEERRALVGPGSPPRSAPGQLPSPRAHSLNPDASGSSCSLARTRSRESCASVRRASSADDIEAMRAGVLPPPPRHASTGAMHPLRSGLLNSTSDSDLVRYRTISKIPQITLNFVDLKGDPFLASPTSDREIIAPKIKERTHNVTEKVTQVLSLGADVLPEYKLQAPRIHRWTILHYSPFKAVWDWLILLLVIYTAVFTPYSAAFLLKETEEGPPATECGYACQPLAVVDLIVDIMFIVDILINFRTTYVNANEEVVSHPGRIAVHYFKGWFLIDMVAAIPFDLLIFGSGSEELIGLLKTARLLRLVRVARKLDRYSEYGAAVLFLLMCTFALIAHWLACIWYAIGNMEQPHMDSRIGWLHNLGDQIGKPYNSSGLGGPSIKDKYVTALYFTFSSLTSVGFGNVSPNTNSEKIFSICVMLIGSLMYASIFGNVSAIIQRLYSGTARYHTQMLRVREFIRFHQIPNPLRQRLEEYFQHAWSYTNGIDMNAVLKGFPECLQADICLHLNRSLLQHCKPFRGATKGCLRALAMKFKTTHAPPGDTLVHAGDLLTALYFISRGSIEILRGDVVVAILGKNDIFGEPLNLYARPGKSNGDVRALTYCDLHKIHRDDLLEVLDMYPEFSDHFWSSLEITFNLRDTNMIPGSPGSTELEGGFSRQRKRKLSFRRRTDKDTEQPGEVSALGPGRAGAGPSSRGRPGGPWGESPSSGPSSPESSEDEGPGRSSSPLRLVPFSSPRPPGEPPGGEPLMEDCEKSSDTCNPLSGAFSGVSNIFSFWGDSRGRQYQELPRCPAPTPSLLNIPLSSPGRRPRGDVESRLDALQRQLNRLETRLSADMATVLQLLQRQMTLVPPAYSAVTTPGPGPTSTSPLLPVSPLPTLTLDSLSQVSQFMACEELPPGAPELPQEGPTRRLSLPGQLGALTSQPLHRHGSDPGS

In series [4] the target is T2, human 5-HT1A receptor (Homo sapiens (Human), UniProt P08908). Put plainly: Test 2: agonist activity for human 5-HT1A receptor ([35S]GTPγS binding). It counts as biochemical. To be noted: for Emax at 10 µM: agonist activity in the presence of 10 μM of compound, relative to 100 μmol/L 5-HT; for EC50: [35S]GTPγS binding, concentration at which half the activity of Emax was obtained. In outline: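 Membranes from CHO cells expressing human 5-HT1A incubated with compound, GDP-containing buffer and [35S]GTPγS for 60 min at room temperature. Bound radioactivity collected by glass-fibre filtration and counted by liquid scintillation; agonist activity derived from a formula.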
T2 sequence (P08908 whole entry): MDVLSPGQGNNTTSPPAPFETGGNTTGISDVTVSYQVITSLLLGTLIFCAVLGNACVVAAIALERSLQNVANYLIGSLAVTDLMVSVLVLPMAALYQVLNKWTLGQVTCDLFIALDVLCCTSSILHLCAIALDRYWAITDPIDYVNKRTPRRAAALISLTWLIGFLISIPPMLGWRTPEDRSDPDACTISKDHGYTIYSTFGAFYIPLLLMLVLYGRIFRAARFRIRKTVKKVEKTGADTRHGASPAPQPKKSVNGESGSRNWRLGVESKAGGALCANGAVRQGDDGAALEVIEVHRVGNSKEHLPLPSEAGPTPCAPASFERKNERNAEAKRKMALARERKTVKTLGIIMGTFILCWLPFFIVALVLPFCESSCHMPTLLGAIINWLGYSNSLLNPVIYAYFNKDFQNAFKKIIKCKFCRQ

In series [5] the target is T2, human 5-HT1A receptor. In words: Test 1: binding activity for human 5-HT1A receptor ([3H]8-OH-DPAT, CHO cell membrane fraction). In outline: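 Membranes incubated with [3H]8-OH-DPAT and compound for 60 min at room temperature, then filtered on polyethylenimine-coated glass-fibre plates and counted by liquid scintillation. IC50 from Hill analysis; Ki = IC50/(1+S/Kd), Kd from saturation binding on the same membranes.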

The target of another series is human D2 receptor (Homo sapiens (Human), UniProt P14416). Put plainly: Test 1: binding activity for human D2 receptor ([3H]Spiperone, CHO cell membrane fraction). As to conditions: human D2 receptor, [3H]Spiperone. An outline of the steps:
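CHO-cell membranes with [3H]ketanserin (5-HT2A) or [3H]spiperone (D2) were incubated with compound for 60 min at room temperature, then filtered, and bound radioactivity was counted by scintillation. Ki = IC50/(1+S/Kd), with ligand Kd from saturation binding on the same membranes.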

Chain of human D2 receptor (P14416 whole entry): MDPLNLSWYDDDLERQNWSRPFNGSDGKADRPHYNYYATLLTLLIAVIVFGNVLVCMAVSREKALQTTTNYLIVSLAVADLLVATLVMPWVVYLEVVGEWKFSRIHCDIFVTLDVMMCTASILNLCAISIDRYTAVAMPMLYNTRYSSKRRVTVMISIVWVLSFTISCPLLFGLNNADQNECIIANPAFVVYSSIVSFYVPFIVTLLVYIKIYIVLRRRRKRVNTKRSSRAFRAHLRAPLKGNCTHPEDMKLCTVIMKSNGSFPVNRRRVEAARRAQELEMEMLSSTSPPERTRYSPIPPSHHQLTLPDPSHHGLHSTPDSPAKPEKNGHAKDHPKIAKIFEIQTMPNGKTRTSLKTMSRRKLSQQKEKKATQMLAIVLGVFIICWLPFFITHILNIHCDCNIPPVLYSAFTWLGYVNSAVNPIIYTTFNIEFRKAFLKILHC

With `O=C1c2ncccc2CCN1CCN1CCC(c2noc3cc(F)ccc23)CC1` [Example 4], the Ki at human 5-HT2A receptor [1] is 2.4 nM. In addition, the IC50 at human 5-HT2A receptor [2] is 9.95 nM; at hERG channel, 400 nM. In addition, in series [3], the “Metabolic stability in human hepatic microsome” value (“Metabolic stability” for short) is on record as 0.011 mL/min/mg protein.
As to `O=C1c2ncccc2CCN1CCN1CCC(c2nsc3ccccc23)CC1` [Example 26], affinity on human 5-HT2A receptor [1] was put at a Ki of 1.92 nM. The Emax at 10 µM on human 5-HT1A receptor [4] stood at 50%. The IC50 at human 5-HT2A receptor [2] came to 4.49 nM; at hERG channel, 800 nM. For the same compound, the “Metabolic stability” value in series [3] is on record as below 0.01 mL/min/mg protein.
Take `CCc1nc2c(o1)C(=O)N(CCN1CCC(c3noc4ccccc34)CC1)CC2` [Example 72]: the affinity on human 5-HT2A receptor [1], expressed as Ki, was 7.8 nM. The compound further registered an IC50 against human 5-HT2A receptor [2] of 72 nM.
`O=C1c2cccnc2CCN1CCN1CCN(c2nsc3ccccc23)CC1` [Example 9] registered a Ki at human 5-HT2A receptor [1] of 2.24 nM. For the same compound, on human 5-HT1A receptor [4], the Emax at 10 µM came to 43%. Moreover, in series [3], the “Metabolic stability” value is 0.100 mL/min/mg protein. Besides, the IC50 on hERG channel was found to be 2300 nM.
For the compound `O=C1c2c(Br)nn(Br)c2CCN1CCN1CCN(c2nsc3ccccc23)CC1` [Example 69], the Ki on human 5-HT1A receptor [5] came to 10.4 nM; on human 5-HT2A receptor [1], 1 nM; at human D2 receptor, 360 nM. The concentration giving a half-maximal response (EC50) on human 5-HT1A receptor [4] is 33.9 nM. Further, the Emax at 10 µM at human 5-HT1A receptor [4] amounted to 45%.
With `Cc1nc2c(o1)C(=O)N(CCN1CCN(c3noc4ccccc34)CC1)CC2` [Example 178], the inhibition constant Ki was 179 nM on human 5-HT2A receptor [1] and above 10000 nM on human D2 receptor. At human 5-HT2A receptor [2] (aequorin luminescence), this compound gave a concentration for half-maximal inhibition (IC50) of 2020 nM.
On human 5-HT2A receptor [1], `Cc1cc2c(cn1)C(=O)N(CCN1CC=C(c3noc4ccccc34)CC1)CC2` [Example 152] registered a Ki of 11.4 nM. The compound also returned a 50% inhibitory concentration (IC50) against human 5-HT2A receptor [2] (aequorin luminescence) of 82.7 nM.
On human 5-HT2A receptor [1], `O=c1c2cnccc2ccn1CCN1CCC(c2noc3ccccc23)CC1` [Example 13] had a Ki of 8.4 nM. At human 5-HT2A receptor [2], inhibition was half-maximal at 71 nM (IC50). Also, the “Metabolic stability” value in series [3] was below 0.01 mL/min/mg protein.
`O=C1c2ncccc2CCN1CCN1CCN(c2noc3cc(F)ccc23)CC1` [Example 123] yielded a Ki at human 5-HT1A receptor [5] of 162 nM. On human 5-HT1A receptor [4], a half-maximal effect (EC50) was put at 186 nM and the maximum response (Emax) at 10 µM was 71%. The compound further registered a half-inhibitory concentration (IC50) at human 5-HT2A receptor [2] (aequorin luminescence) of 22.9 nM. Also, the “Metabolic stability” value in series [3] is recorded as below 0.05 mL/min/mg protein. Moreover, the concentration for half-maximal inhibition (IC50) at hERG channel was 3900 nM.
`O=C1c2ncccc2CCN1CCN1CCN(c2noc3cc(Cl)ccc23)CC1` [Example 124]: the inhibition constant (Ki) at human 5-HT2A receptor [1] came to 77 nM. On human 5-HT2A receptor [2] (aequorin luminescence), this compound yielded an IC50 of 120 nM.
Consider `Cc1cc2c(cn1)C(=O)N(CCN1CCN(c3nsc4ccccc34)CC1)CC2` [Example 108, 2-{2-[4-(1,2-Benzoisothiazol-3-yl)piperazin-1-yl]ethyl}-6-methyl-3,4-dihydro-2,7-naphthyridin-1(2H)-one], for which the Emax at 10 µM on human 5-HT1A receptor [4] came to 71%. In addition, the IC50 was 7.5 nM against human 5-HT2A receptor [2] and 2800 nM on hERG channel. Besides, the “Metabolic stability” value in series [3] was 0.119 mL/min/mg protein.
The matching figures for `Cc1noc2ccn(CCN3CCN(c4nsc5ccccc45)CC3)c(=O)c12` [Example 53]: 72%, 8.03 nM, 5800 nM and 0.436 mL/min/mg protein.
`O=C1c2ncccc2CCN1CCN1CCC(c2noc3cc(F)ccc23)CC1` [Example 125] returned a Ki at human 5-HT2A receptor [1] of 0.27 nM. Moreover, the IC50 against human 5-HT2A receptor [2] (aequorin luminescence) is 7.15 nM; at hERG channel it was below 300 nM. For the same compound, in series [3], the “Metabolic stability” value is given as below 0.05 mL/min/mg protein.
`O=C1c2cn[nH]c2CCCN1CCN1CCC(c2noc3ccccc23)CC1` [Example 97, 5-{2-[4-(1,2-Benzoisoxazol-3-yl)piperidin-1-yl]ethyl}-5,6,7,8-tetrahydropyrazolo[4,3-c]azepin-4(1H)-one]: the Ki on human 5-HT1A receptor [5] is 17.6 nM; on human D2 receptor it was 136 nM. For the same compound, at human 5-HT1A receptor [4], the half-maximal effective concentration (EC50) came out at 447 nM. Further, at human 5-HT1A receptor [4], the Emax at 10 µM was 42%. Moreover, in series [3], the “Metabolic stability” value was below 0.01 mL/min/mg protein. In addition, the half-maximal inhibitory concentration (IC50) at hERG channel amounted to 2600 nM.
